Assays:
[1] = tested on: MDA-MB-231 breast cancer cells; experiment: SRB cell viability assay; format: cell-based; conditions: MDA-MB-231, SRB assay; read-out: IC50, cytotoxicity
From the text: Translation Inhibition by Amidino-Rocaglates Induces Cytotoxicity. We next evaluated amidino-rocaglates in an SRB cell viability assay using MDA-MB-231 breast cancer cells for cellular readout of translation inhibition (FIG. 16). In particular, (−)-9b, (−)-9aa, and (+)-9aa were compared with rocaglate hydroxamate (−)-23. […] The inspiring high-potency of amidino-rocaglates underscores their utility as promising agents for anticancer treatment combined with the appropriate formulation and drug-delivery strategies. […] Meanwhile, amide carbonyls of 9z and 9aa served as H-bond acceptors likely improving interactions with Gln195 of eIF4A, although this awaits structural confirmation. […] Our studies further illustrate the power of chemical synthesis enabling structural and biological improvement of complex natural products using targeted modifications. Additional biological studies of amidino-, amino-rocaglates, and related compounds including RNA binding studies are currently in progress and will be reported in due course.

[2] = tested on: eIF4A-dependent translation; experiment: in vitro translation assay, bicistronic FF/HCV/Ren reporter mRNA in Krebs-2 extracts; format: biochemical; conditions: screen at 2 μM compound
Protocol: Structure-Activity Relationships. With a number of amidino-rocaglates and amino-rocaglates in hand, we evaluated their inhibition of eIF4A-dependent translation using an in vitro assay as depicted in FIG. 14, where a bicistronic reporter mRNA was designed for translation in Krebs-2 extracts. In FIG. 14 the following description applies (a) IC50 was determined from fitted sigmoid curves; […] indicates the concentration of compound that inhibits cap-dependent translation by 50%, which was normalized by cap-independent translation. For its determination, the bicistronic reporter FF/HCV/Ren mRNA was used to produce Firefly luciferase (cap-dependent) and Renilla luciferase (cap-independent) in Krebs-2 extracts in the presence of indicated compounds at various concentrations. In particular, translation of Firefly luciferase (FF) is cap-dependent and depends on eIF4A activity; in contrast, translation of Renilla luciferase (REN) utilizes the HCV internal ribosome entry site (IRES) which functions independently of eIF4A. IC50's were determined by the inhibition of FF relative to REN obtained in the presence of compound relative to vehicle controls and normalized to REN as an internal control. […] In accordance with the eIF4A-RNA-rocaglamide (2) co-crystallographic analysis (FIG. 4), the amide carbonyl of 2 interacts with Gln195 of eIF4A as a H-bond acceptor, while the tertiary hydroxyl of 2 serves as a H-bond donor to an RNA base. […] To further verify the hypothesis, amidino-rocaglates (pKa of N—H˜26.7-30.7 in DMSO, strong H-bond donors) and amino-rocaglates (pKa of N—H˜36 to 44 in DMSO, weak H-bond donors) were next evaluated. […] Conversely, benzyl amidine 9e had IC50=60 nM, whereas the methylene tether may allow conformational adjustment to avoid rigid repulsion in the binding pocket.
The rocaglate collection was also tested in in vitro translation assays using cell-free extracts with a previously described bicistronic mRNA containing the HCV IRES, which is not dependent on eIF4A activity and served as an internal control (FIG. 19C).
In Vitro Translation Assays. In vitro translation assays performed in Krebs-2 cell extracts were supplemented with 5 mM MgCl2, 30 mM Tris-HCl (pH 7.5), 1.5 mM ATP, 0.1 mM GTP, 0.6 mM CTP, 10 mM dipotassium creatine phosphate, 80 μg/mL creatine kinase, and 0.04 mM amino acids. The specified mRNA reporters were added to each reaction at a final concentration of 10 ng/μL. The translation reactions were incubated with or without compound for 60 minutes at 30° C. prior to the measurement of luciferase activities.
FIGS. 19A-19C. Rocaglate activity profiling. 19A. Assessing eIF4A1:poly r(AG)8 (SEQ ID NO: 2) RNA binding by FP in the presence of 10 μM rocaglate. Values are expressed relative to vehicle controls and data is rank ordered. n=3±SD. 19B. The change in polarization obtained with eIF4A1:poly r(AG)8 (SEQ ID NO: 2) and eIF4A2:poly r(AG)8 (SEQ ID NO: 2) RNA. Pearson r=0.814; p<0.0001. 19C. Inhibition of cap-dependent translation by rocaglates was measured using the indicated mRNA bicistronic reporter (4 ng/ul) in Krebs-2 extracts at a final compound concentration of 2 μM. n=3±SD.
FIG. 35A-35E are plots showing dose-response curve of FF-HCV-Ren mRNA translation in Krebs extracts with IC50s shown for inhibition of cap-dependent protein synthesis. Values are plotted relative to DMSO controls. n=2 technical replicates performed in duplicate.

NIH/3T3 cells = experiment: Sulforhodamine B (SRB) cytotoxicity assay; format: cell-based; conditions: 40 nM, 4 days
Protocol: In cellula activity of rocaglates. All compounds in the rocaglate collection were assessed for cytotoxic activity towards NIH/3T3 cells as well as the rocaglate-resistant line, eIF4A^em1JP, which harbors an F163L mutation in eIF4A1. This mutation was originally identified following selection for RocA-resistant yeast mutants and F163 was subsequently shown to be critical for stacking with ring C of RocA (2) (FIG. 4). Although eIF4A2 is also a target of rocaglates, eIF4A1 F163L is sufficient to confer resistance to rocaglate-induced translation inhibition and cytotoxicity, likely due to eIF4A1 being the more abundant isoform in NIH/3T3 cells (250-fold higher). […] Lastly, although effective at inhibiting cap-dependent translation in vitro, WGD-57-591 (no activity @ 40 nM) and WGD-57-590 (12% growth inhibition @ 40 nM) performed poorly in this assay.
Sulforhodamine B (SRB) assay. NIH/3T3 cells were seeded at a density of 1000 cells/well in a 96 well format and incubated in presence of each 40 nM compound. After 4 days of culture, cells were washed with PBS, fixed with 50% trichloroacetic (TCA) acid for 1 hour, and then stained with 0.5% sulforhodamine B in 1% acetic acid for 15 min. Plates were then washed 5 times with 1% acetic acid, dried, and the stained wells were resuspended with 10 mM Tris (pH 9) prior to measuring the absorbance at 510 nm using (Spectramax M5, Molecular Devices)
FIGS. 26A-26B. In cellula activity of rocaglates. 26A. Cytotoxicity of rocaglates towards NIH/3T3 (grey circle) and the NIH/3T3 rocaglate-resistant line, eIF4A^em1JP(redtriangle). Cells were exposed to 40 nM compound for 4 days and viability was measured using the SRB assay. n=3±SD. 26B. Rocaglates show different sequence preferences for inhibiting cap-dependent translation in cellula. HEK 293 cells were transfected with 0.5 μg of in vitro synthesized capped (AG)10-FF/HCV/Ren or (UC)10-FF/HCV/Ren mRNA and 1h later exposed to the indicated concentrations of compounds for an additional 6 h, at which time extracts were prepared and luciferase activity measured. n=3 SD.

SMILES: COC(=O)[C@@H]1[C@@H](c2ccccc2)[C@]2(c3ccc(OC)cc3)Oc3cc(OC)cc(OC)c3[C@@]23N=C(C)N[C@@]13O [(−)-9b]
- IC50 [1]: 3.5 nM

SMILES: COC(=O)[C@@H]1[C@@H](c2ccccc2)[C@]2(c3ccc(OC)cc3)Oc3cc(OC)cc(OC)c3[C@@]23NC(C2CC2)=N[C@@]13O [9n]
- inhibition of cap-dependent translation in vitro (in words) [2]: comparable potency to SDS-1-021
- rank among the top 15 cytotoxic rocaglates (NIH/3T3 cells): 15th

From patent US11279708B2, “Amidino- and amino-rocaglates as novel translation inhibitors and anticancer agents” (priority 2019, dated 2022)
